Assay results as given in PMC7946228, “Discovery of novel candidates for anti-liposarcoma therapies by medium-scale high-throughput drug screening” (PLoS ONE, 2021).
Where two headings read alike, the source gives them in different places. Numbered stars: 1 amine (or outer) side, 2 acyl side, 3 side chain; on linkers, the order of the positions; unused ones are H or OH. Bridge positions count the residues as written; N and C are the ends. Square brackets hold non-standard residues; d marks the D form. Peptide text beside a SMILES is read from it. I, II: the chains in the order shown. Actinocin(9to1) = Cc1c2oc3c(C)ccc(C(=O)[*:1])c3nc-2c(C(=O)[*:2])c(N)c1=O; NMeV = CN[C@H](C(=O)O)C(C)C; Sar = CNCC(=O)O

Key:
[1] = tested on: 13 liposarcoma cell lines; experiment: High-throughput drug screen, ATP viability 72h; type: cell-based, human; details: five concentrations 1 nM to 10 μM, combined viability (AUC)
Method: 349 compounds from anti-cancer Selleck Chemical library were pre-aliquoted at five concentrations, increasing in 10-fold steps from 1 nM to 10 μM, in 384-well plates using an Echo Liquid Handler. Each plate also contained positive (benzethonium chloride, BzCl) and negative (DMSO only) controls. Additional drugs were added manually to the same plates at the same concentration range. Cells were seeded directly into the plates containing the drugs. After 72h viability was assessed through levels of ATP, with Cell Titer Glow assay (Promega, Wisconsin, United States) and luminescence quantified using a […]. Data from drug screens were analyzed with R version 3.4.0 (R_Core_Team, 2017) normalized to median positive (BzCl) and median negative (DMSO) controls using formula: (drug-BzCl)/(DMSO–BzCl), with total viability calculated as the area under the curve over all five drug concentrations, adjusted using qualitatively constrained quantile smoothing splines, R package ‘cobs’ version 1.3–3 [22]. The raw values of positive (BzCl) and median negative (DMSO) controls on each assay plate were aggregated and used to calculate z’-factors, as a measure of assay performance and data quality, with a z’-factor > 0.5 representing acceptable data. For two cases where the z’-factor was below 0.5, strictly standardized mean difference (SSMD) was additionally calculated, giving the population value (β) of SSMD -4 and -5, respectively, indicating good quality. Data visualization was done in R using ‘ComplexHeatmaps’ package version 1.20.0 [24]. The same assay was also used when assessing viability of non-tumor cells and tumor explants.
Thirteen liposarcoma cell lines representing dedifferentiated, well-differentiated, pleomorphic and unspecified subtype liposarcomas were grown in 384-well format in the presence one of the 353 compounds, each at five 10-fold increasing concentrations (from 1 nM to 10 μM) for 72h, after which their viability was scored by measuring ATP levels. The viability was normalized to positive and negative controls and was calculated as sum of viabilities obtained with all the five used concentrations. That means if, e.g., the compound was killing cells at all the tested concentrations, the viability value would be 0, and if the compound was not killing cells at any tested concentrations, the value would be […]. If the compound was reducing the viability to 50% at 100 nM, and to 0% at 1 and 10 μM, the total viability would be calculated as 2 (see scheme on the top of Fig 1A). Within the tested concentration range, the majority of the drugs had very little effect on viability regardless of the target or pathway (Figs 1A and S1). The drug screen included 28 chemotherapeutic drugs currently in clinical use in Norway for the treatment of sarcoma.

liposarcoma cell lines [2] = experiment: TUNEL apoptosis assay by flow cytometry; type: cell-based, human; details: growth arresting concentration, 17-72h, majority of cell lines
Method: (§1) Cells were treated with drugs at the concentrations corresponding to previously established growth arresting concentrations and collected between 17 and 72h. Time of collection was individual for every drug/cell line combination; cells were collected after the beginning of complete growth inhibition (based on the growth curves data) but only when first signs of morphological change or cell death were visible (estimated microscopically approximately every 2h). After methanol fixation, cells were barcoded with different combinations of Pacific Blue/Pacific Orange dyes (Thermo Fisher Scientific) for different drug treatments. After mixing, cells were incubated in the TUNEL reaction mix for 1h at 37°C, according to the manufacturer’s instructions (Roche, Germany), stained with Streptavidin-Cy5 conjugated Ab and digested with RNAse. Cells were counter-stained with propidium iodide and analyzed using LSR II Flow Cytometer (BD Biosciences, NJ, USA. The data were processed with FlowJo Version 7.6.5 (Tree Star, Ashland, USA). The gating strategy is presented in Fig 3A. Cy-5 positive cells (as compared to control sample) were calculated as apoptotic. Cell cycles of non-apoptotic cells were analyzed using the built in FlowJo Cell Cycle Analysis module. Three independent biological replicates were done for each cell line/drug combination with exception of FU-DDLS-1 and T1000 –for which we only had two replicates available.

liposarcoma cell lines [3] = experiment: Drug withdrawal, reversibility of growth arrest; type: cell-based, human
Method: The cellular proliferation rate was measured using the IncuCyte ZOOM live-cell imaging system (Essen Bioscience, Birmingham, UK) with the corresponding software application (version 2013BRev1). First the growth rate for each cell line was established to estimate the seeding numbers of cells corresponding to 15–30% of confluence at the start of the experiment and maximum 70% after 72h. The drug treatment was initiated approximately 18h after seeding. The proliferation rate was measured as cell confluence over time through the acquisition of photographs under phase contrast every third hour for the entire duration of the drug treatment. During the drug treatment, media were not changed, and cells were not split. The growth reducing drug concentration was defined as lowest drug concentration leading to significant decrease of cellular growth between 40 and 72h after start of treatment. To determine that concentration, plots were generated using IncuCyte software and differences in growth between 40 and 72h were calculated using least-square means with the ‘emmeans’ R package version 1.4.3 [25]. Growth arresting concentrations were defined as minimal drug concentration under which cell confluence between 96 and 120h increases by less than 3%. Though growth arrest occurred much earlier, these time points ensured that the growth arrest is a stable phenomenon. These growth arresting concentrations were used for drug withdrawal, apoptosis and cell cycle experiments. All the data were verified with the plots. The presented values correspond to median values from two (T449, all compounds) to five (all cell lines, triptolide) biological replicates.
An important prerequisite for clinical implementation of these compounds as treatment for liposarcoma is irreversibility of the induced growth inhibition. We thus assessed if the drugs were only transiently cytostatic, which is especially important in case of the compounds that seem to work mainly via cell cycle arrest (APO866, GSK2126458). Cells were treated with the compounds at growth arresting concentrations for 120h after which the compounds were removed and cell numbers were monitored for another 72h. […] To irreversibly arrest cell proliferation GSK2126458 had to be used at 10x higher concentrations (100x for GOT3) (S5 Fig). Those concentrations are above physiological ranges (see Table 2), and these effects should be accounted for assessing use of GSK2126458 in clinic.

[4] = tested on: T449 liposarcoma cell line; experiment: CellTiter-Glo viability, GR50, 72h; type: cell-based, human; details: Homo sapiens; T449, 72h; read-out: Half maximum effective concentration corrected for cell growth (GR50)
Method: (§2) Cell viability was measured using the CellTiter-Glo Luminescent Cell Viability Assay (Promega, Wisconsin, United States). For each experiment the same cell numbers were seeded as for the proliferation experiments. Seven drug concentrations were used, starting from 100μM with 10-fold dilutions and also a vehicle control appropriate for each drug (DMSO or ethanol). After 72h of drug or vehicle control treatment levels of ATP were measured with CellTiter-Glo. The data from six to nine biological replicates, each with three technical replicates were collected. A nonlinear regression model with different four-parameter log-logistic function was used for modelling of the drug dose-response using ‘GRmetrics’ R package version 1.8.1 [26]. The calculated GR50 metric is equivalent to the IC50 metric but takes into account the growth rate of cells. Therefore, it estimates better the effect of the compound on cell viability and allows for comparison between different cell lines with different growth rates.

[5] = tested on: LPS141 liposarcoma cell line; experiment: CellTiter-Glo viability, GR50, 72h; type: cell-based, human; details: Homo sapiens, LPS141; LPS 141, 72h; read-out: Half maximum effective concentration corrected for cell growth (GR50)
Method: as §2

[6] = tested on: SW872 liposarcoma cell line; experiment: CellTiter-Glo viability, GR50, 72h; type: cell-based, human; details: Homo sapiens, SW872; SW 872, 72h; read-out: Half maximum effective concentration corrected for cell growth (GR50)
Method: as §2

[7] = tested on: LPS510 liposarcoma cell line; experiment: CellTiter-Glo viability, GR50, 72h; type: cell-based, human; details: Homo sapiens; LPS 510, 72h; read-out: Half maximum effective concentration corrected for cell growth (GR50)
Method: as §2

[8] = tested on: NRH-LS1 liposarcoma cell line; experiment: CellTiter-Glo viability, GR50, 72h; type: cell-based, human; details: Homo sapiens; NRH-LS1, 72h; read-out: Half maximum effective concentration corrected for cell growth (GR50)
Method: as §2

[9] = tested on: SA-4 liposarcoma cell line; experiment: CellTiter-Glo viability, GR50, 72h; type: cell-based, human; details: Homo sapiens; SA-4, 72h; read-out: Half maximum effective concentration corrected for cell growth (GR50)
Method: as §2

[10] = tested on: LiSa-2 liposarcoma cell line; experiment: CellTiter-Glo viability, GR50, 72h; type: cell-based, human; details: Homo sapiens; LiSa-2, 72h; read-out: Half maximum effective concentration corrected for cell growth (GR50)
Method: as §2

[11] = tested on: GOT3 liposarcoma cell line; experiment: CellTiter-Glo viability, GR50, 72h; type: cell-based, human; details: Homo sapiens; GOT3, 72h; read-out: Half maximum effective concentration corrected for cell growth (GR50)
Method: as §2

[12] = tested on: LPS853 liposarcoma cell line; experiment: CellTiter-Glo viability, GR50, 72h; type: cell-based, human; details: Homo sapiens; LPS 853, 72h; read-out: Half maximum effective concentration corrected for cell growth (GR50)
Method: as §2

[13] = tested on: T1000 liposarcoma cell line; experiment: CellTiter-Glo viability, GR50, 72h; type: cell-based, human; details: Homo sapiens; T1000, 72h; read-out: Half maximum effective concentration corrected for cell growth (GR50)
Method: as §2

[14] = tested on: LS2 liposarcoma cell line; experiment: CellTiter-Glo viability, GR50, 72h; type: cell-based, human; details: Homo sapiens; LS2, 72h; read-out: Half maximum effective concentration corrected for cell growth (GR50)
Method: as §2

[15] = tested on: T778 liposarcoma cell line; experiment: CellTiter-Glo viability, GR50, 72h; type: cell-based, human; details: Homo sapiens; T778, 72h; read-out: Half maximum effective concentration corrected for cell growth (GR50)
Method: as §2

[16] = tested on: FU-DDLS-1 liposarcoma cell line; experiment: CellTiter-Glo viability, GR50, 72h; type: cell-based, human; details: Homo sapiens; FU-DDL S-1, 72h; read-out: Half maximum effective concentration corrected for cell growth (GR50)
Method: as §2

liposarcoma cell lines [17] = experiment: Cell cycle analysis of non-apoptotic cells (propidium iodide); type: cell-based, human; details: growth arresting concentration, non-apoptotic fraction
Method: as §1

[18] = cited from earlier work

CC(C)C[C@H](NC(=O)[C@H](Cc1ccccc1)NC(=O)c1cnccn1)B(O)O [Bortezomib]
effect on viability in the drug screen [1]: top candidates from the screen

CC(=O)O[C@H]1C(=O)[C@@]2(C)[C@H]([C@H](OC(=O)c3ccccc3)[C@]3(O)C[C@H](OC(=O)[C@H](O)[C@@H](NC(=O)c4ccccc4)c4ccccc4)C(C)=C1C3(C)C)[C@]1(OC(C)=O)CO[C@@H]1C[C@@H]2O [paclitaxel]
effect on viability in the drug screen [1]: significant impact on viability

CC(=O)O[C@@]12CO[C@@H]1C[C@H](O)[C@@]1(C)C(=O)[C@H](O)C3=C(C)[C@@H](OC(=O)[C@H](O)[C@@H](NC(=O)OC(C)(C)C)c4ccccc4)C[C@@](O)([C@@H](OC(=O)c4ccccc4)[C@H]21)C3(C)C [docetaxel]
effect on viability in the drug screen [1]: significant impact on viability

COc1ncc(-c2ccc3nccc(-c4ccnnc4)c3c2)cc1NS(=O)(=O)c1ccc(F)cc1F [GSK2126458]
apoptosis (increase in % of apoptotic cells) (liposarcoma cell lines [2]): ≤ 5% | reversibility of growth inhibition after drug removal (liposarcoma cell lines [3]; 120h treatment at growth arresting concentration, then 72h without drug, except T778 with MLN9708): All of the tested cell lines regained their growth rate | time to regain growth rate after withdrawal (liposarcoma cell lines [3]; all tested cell lines, 120h treatment at growth arresting concentration): ≤ 3 h | concentration needed for irreversible growth arrest relative to growth arresting concentration (liposarcoma cell lines [3]; cell lines that resumed growth, 100x for GOT3 with GSK2126458): 10 x higher | IC50 [4]: 10 nM | IC50 [5]: 182 nM | IC50 [6]: 401 nM | IC50 [7]: 82 nM | IC50 [8]: 469 nM | IC50 [9]: 86 nM | IC50 [10]: 54 nM | IC50 [11]: 28 nM | IC50 [12]: 50 nM | IC50 [13]: 14 nM | IC50 [14]: 110 nM | IC50 [15]: 52 nM | IC50 [16]: 96 nM | cell cycle phase in which cells are blocked (liposarcoma cell lines [17]): G1 phase | Cmax ([18]; phase I trial of multiple tumor types): ~100 nM | Cmax ([18]; read-out: clinically relevant concentration (Cmax or Css), values show Cmax or Css (italics), patients): 100 nM

Cc1c2oc3c(C)ccc(C(=O)N[C@@H]4C(=O)N[C@H](C(C)C)C(=O)N5CCC[C@H]5C(=O)N(C)CC(=O)N(C)[C@@H](C(C)C)C(=O)O[C@@H]4C)c3nc-2c(C(=O)N[C@@H]2C(=O)N[C@H](C(C)C)C(=O)N3CCC[C@H]3C(=O)N(C)CC(=O)N(C)[C@@H](C(C)C)C(=O)O[C@@H]2C)c(N)c1=O [actinomycin D] (I: T[dV]P[Sar][NMeV] / II: T[dV]P[Sar][NMeV]; ester I:1-I:C, II:1-II:C; linker I:N-II:N via Actinocin(9to1))
effect on viability in the drug screen [1]: significant impact on viability

Nc1ccn([C@@H]2O[C@H](CO)[C@@H](O)C2(F)F)c(=O)n1 [gemcitabine]
effect on viability in the drug screen [1]: significant impact on viability

CC[C@]1(O)C[C@H]2CN(CCc3c([nH]c4ccccc34)[C@@](C(=O)OC)(c3cc4c(cc3OC)N(C=O)[C@H]3[C@@](O)(C(=O)OC)[C@H](OC(C)=O)[C@]5(CC)C=CCN6CC[C@]43[C@@H]65)C2)C1 [vincristine]
effect on viability in the drug screen [1]: significant impact on viability

Cc1ccc(C(=O)N(CCCN)[C@@H](c2nc3cc(Cl)ccc3c(=O)n2Cc2ccccc2)C(C)C)cc1 [ispinesib]
effect on viability in the drug screen [1]: top candidates from the screen
